From patent US7109244B2, “Compositions and methods comprising long-chain, straight-chain 2-amino-3-hydroxyalkanes” (priority 1997, dated 2006)

What was measured:
[1] = tested on: L1210 murine lymphocytic leukemia cells; experiment: L1210 morphological change (pointed cells); type: cell-based; conditions: for % Pointed cells: percent of the living cells; for % Pointed Cells 1st: 27 h
Protocol: Referring to FIG. 1, in the L1210 assay some of the cells changed from being spherical (FIG. 1A) to ovoid with long points approximately […] apart (FIG. 1B). Several other forms have also been observed in assays of these extracts, including cells with points not […] apart (FIG. 1C), cells with more than two points (FIG. 1D), cells with a bulge (FIG. 1E) and cells with a bulge replacing one of the points (FIG. 1F). However, the form with two sharp, opposing points was by far the predominant and characteristic one observed. This type of morphological change had not previously been observed during the screening of over 1000 marine extracts.
As discussed above, the spisulosines caused a distinct morphological change in L1210 leukemia cells, in addition to cytotoxicity. This bioactivity, which was recorded as the percentage of living cells in which altered morphology was observed, could be observed sometimes as early as 13 h after the start of the assay and reached a maximum at 50–60 h, after which it decreased. […] The morphological effect was usually measured 30–35 h after the start of the assay and again about 24 h later, while the cytotoxicity was determined when the number of cells in the controls reached approximately 8000, usually in 3 days after the assay was begun. It should be noted that the pointed cells were live cells and that they were counted as such for the cytotoxicity reading. Also, assays in which 100% cytotoxicity was recorded may still have contained live cells (<0.5%) which may or may not have been pointed. All morphologically-changed cells were counted in the pointed cell percentage.
Morphologically-changed cells (FIGS. 1A–1F) were counted as living cells when determining the percent inhibition of growth. Morphological changes were assessed throughout the assay period. The percentage of pointed cells was determined by counting the number of altered cells in approximately 60 living cells. This percentage varied with the length of time the assay had been running. It generally reached its maximum about 50 hours after the start of the assay, but pointed cells could be observed as early as 13 hours after the start of the assay and could usually still be seen when the percent growth inhibition was measured. The percentages of pointed cells were often counted both after about 35 and after 55 hours. The time that this measurement was made is indicated with the data.

H9 = experiment: expanded in vitro screen, H9; type: cell-based; conditions: Homo sapiens; H9, Lymphoma
Protocol: (§1) An expanded in vitro screen was performed of spisulosine 285 against a series of different cell lines.

[2] = tested on: human renal cancer (MRI-H-121); experiment: xenograft model of human renal cancer; type: in vivo; conditions: for % T/C / Comments: intraperitoneal
Protocol: Spisulosine 285 was tested in in vivo studies against xenograft models of human prostate cancer (PC-3) and human renal cancer (MRI-H-121). These models use subcutaneously implanted solid human tumors that grow and increase in volume over time. The mean volume of tumor growth in control animals provides the basis for comparison. […] A level of activity that is less than 40% T/C is considered statistically significant. The doses of spisulosine used were given at the maximum tolerated, non lethal dose (MTD), ½ MTD and ¼ MTD. Delivery of the drug was by the intraperitoneal route.

A-549 = experiment: in vitro tumor cell line activity, A-549; type: cell-based
U-937 = experiment: expanded in vitro screen, U-937; type: cell-based; conditions: Homo sapiens; U-937, Lymphoma
Protocol: as §1

MEL-28 = experiment: in vitro tumor cell line activity, MEL-28; type: cell-based
Rho protein = Rho protein electrophoresis / Western blot and subcellular fractionation (Example C); type: cell-based; conditions: 0.5 mM, 20 hour
Protocol: The small GTP binding protein Rho is involved in the formation of actin-myosin “stress fibers” (Hall, A., Science, 279, 1998, p 509–514). Therefore, the electrophoretic mobility and cellular distribution of Rho was analyzed in cells treated with spisulosine 285.
FIG. 5 is an electrophoretogram of Example C. In panel A, equivalent amounts of protein from a cell extract from untreated (a) or from 0.5 mM spisulosine 285 treated (20 hour) cells (b) were fractionated by gel electrophoresis and blotted onto nitrocellulose paper to analyze the amount of the Rho protein.
In panel B the experiment was carried out as above, except that the homogenate was fractionated into a particulate (membrane, “M”) fraction and soluble (“S”) fraction.
Subcellular fractionation was carried out by placing cells in a hypotonic buffer (0.25 M sucrose, 20 mM HEPES pH 7.4, 2 mM EDTA, 1 mM PMSF, […] aprotinin, leupeptine and pestatine), and lysing them with a Dounce. The homogenate was first centrifuged at 750 g for 5 minutes to remove nuclei and unbroken cells, and the supernatant was further centrifuged at 30,000 g for 1 hour (4° C.) to isolate a pelleted particulate fraction (putative membrane fraction) and a supernatant. The different fractions were characterised by electrophoresis and Western Blotting using an antibody against the Rho protein.

Structure (SMILES): CCCCCCCCCCCCCCC[C@@H](O)[C@H](C)N [Spisulosine 285, (2S,3R)-2-Amino-3-octadecanol]
- L1210 morphological alteration / pointed cell activity (in words) [1]: pointed cell activity
- % Pointed cells ([1]; 0.01 μg/ml): 1%
- % Pointed cells ([1]; 0.05 μg/ml): 71%
- % Pointed Cells 1st ([1]; 0.1 μg/ml): 33%
- % Pointed cells ([1]; 0.1 μg/ml): 62%
- % Pointed Cells 1st ([1]; 0.5 μg/ml): 56%
- % Pointed cells ([1]; 0.5 μg/ml): 97%
- % Pointed Cells 1st ([1]; 1 μg/ml): 64%
- % Pointed Cells 1st ([1]; 5 μg/ml): ad
- IC50 (H9): 0.031 nM
- effect on tumour growth (in words) ([2]; effects continuing up to a few weeks after the last dose): reduces the growth of the human renal cancer
- % T/C ([2]; total dose 2.499 mg/kg, day 15): 43%
- % T/C ([2]; total dose 5.010 mg/kg, day 11): 35%
- Comments ([2]; total dose 5.010 mg/kg, day 11): inhibition (partial
- % T/C ([2]; total dose 9.990 mg/kg, day 11): 28%
- Comments ([2]; total dose 9.990 mg/kg, day 11): inhibition (partial
- active against tumor cell line in vitro (concentration) (A-549): 0.05 mg/mL
- IC50 (U-937): 0.0196 nM
- active against tumor cell line in vitro (concentration) (MEL-28): 0.05 mg/mL
- amount or mobility of Rho (Rho protein): No significant change
- proportion of Rho associated with the particulate fraction (Rho protein): decrease
